Values quoted from earlier work as cited in patent US20120237590A1 (priority 2011, published 2012).

Columns and labels:
Amyloid β = details: mice, 20 mg/kg gavage, 12 weeks
[1] = June 2005 to 2008; 27,996 exenatide and 16,276 sidagliptin users

In the case of `N[C@@H](CC(=O)N1CCn2c(nnc2C(F)(F)F)C1)Cc1cc(F)c(F)cc1F` [Sitagliptin], the “decrease of amyloid β levels and amyloid plaques” value (Amyloid β) is listed as “about 50%”, the “levels of incretin GLP-1 in the brain” value (Amyloid β) is listed as “increased” and the “users who suffered acute pancreatitis” value [1] is listed as 0.12%.
